According to paper PMC4501791, “Molecular Design, Synthesis and Trypanocidal Activity of Dipeptidyl Nitriles as Cruzain Inhibitors” (PLoS Neglected Tropical Diseases, 2015):
Like-named read-outs stand apart in the source and are kept apart here.

What was measured:
[1] = Lysis of LLCMK2 host cells; type: cell-based; conditions: rhesus monkey, footnote of Table 3, cell line not stated
[2] = system: LLCMK2 cells; assay: Lysis of LLCMK2 host cells; type: cell-based; conditions: Macaca mulatta, LLC-MK2, 32 μM, read-out: %cell lysis at 32 μM LLCMK2
[3] = system: T. cruzi CL-Brener strain amastigotes; assay: Trypanocidal activity against amastigote forms in LLCMK2 cells, CL-Brener strain; type: cell-based; conditions: Trypanosoma cruzi, LLC-MK2, 120 h, amastigote lysis, 5 days, read-out: %cell lysis at 32 μM ama Brener
Protocol: (§1) The assays against amastigote forms were performed in LLCMK2 cells. Previously, the cells were cultivated in 96-wells microplates (10^3 cells/well). […] After this, the microplates were incubated at 37°C, in CO2 atmosphere, for 5 days. Then, 10 μL of FluoReporter lacZ/Galactosidase Quantitative Kit (Life Technologies) were added and after 30 minutes the fluorometric reaction was read in a microplate reader (Synergy H1, Biotek) at 386 nm excitation and 448 nm emission. For both assays the percentage of parasite lysis was determined from the following formula: %lysis = 100 –{[(X-PC)/(PC-NC)]x100}, where the optical density values of the samples (X), the positive controls (PC) and negative controls (NC) were used. Culture medium was used as positive control (PC) and medium with 0.6% DMSO (v/v) as negative control (NC). All assays were performed in triplicate with two independent experiments.

[4] = system: T. cruzi Tulahuen strain amastigotes; assay: Trypanocidal activity against amastigote forms in LLCMK2 cells, Tulahuen strain; type: cell-based; conditions: Trypanosoma cruzi; for killing at 32 µM: LLC-MK2, 120 h, amastigote lysis, 5 days, read-out: %cell lysis at 32 μM ama Tula; for EC50: LLC-MK2
Protocol: as §1

[5] = target: T1, cruzain (Trypanosoma cruzi, UniProt P25779); assay: Reversibility assay: recovery of cruzain activity after rapid large dilution; type: biochemical; conditions: 4.5 μM compound incubated with 15 nM cruzain for 30 min, diluted 100-fold
T1 construct: made in house
T1 sequence (P25779 123-337 limits assumed): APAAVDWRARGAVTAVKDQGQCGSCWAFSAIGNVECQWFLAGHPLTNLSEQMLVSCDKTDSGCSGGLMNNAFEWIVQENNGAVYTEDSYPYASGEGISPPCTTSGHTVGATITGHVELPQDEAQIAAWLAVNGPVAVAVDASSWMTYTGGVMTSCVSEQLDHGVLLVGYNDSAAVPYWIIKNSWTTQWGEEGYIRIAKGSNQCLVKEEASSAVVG
Protocol: The progress curve for this sample was then measured and compared to that of a similar sample of enzyme incubated and diluted in the absence of inhibitor. The irreversible inhibitor E-64 (CAS 66701-25-5, Sigma Aldrich) was used as reference.

[6] = target: T1, cruzain; assay: biochemical; conditions: 37°C, pH 5.5, substrate Z-FR-AMC
Protocol: Enzyme kinetic assays were carried out at 37°C in 200 L of a solution containing 100 mM acetate buffer pH 5.5, 300 mM NaCl, 5 mM DTT (dithiothreitol), 5% v/v DMSO (dimethyl sulfoxide), 0.01% v/v Triton X-100 and 0.15 nM cruzain, using Corning® 96-well black flat bottom microplates. The rate of the reaction was monitored using a Biotek Synergy HT plate reader through the fluorescence emission at 460 nm (excitation at 355 nm) due to the hydrolysis of the substrate Z-Phe-Arg-7-amido-4-methylcoumarin (Z-FR-AMC, Sigma-Aldrich). The enzyme stock aliquot was rapidly thawed at 37°C and kept on ice until activation, in which it was incubated for 20 min. in the assay buffer (100 mM acetate pH 5.5 and 5 mM DTT) followed by additional 2 min. incubation with inhibitors before the reaction was started by the addition of the substrate.
Visual inspection and a pre-reading of plate wells were performed to check for possible precipitation and background fluorescence, respectively. Fluorescence emission spectra were also recorded for all inhibitors, using the same excitation wavelength (355 nm) as for the fluorometric assay. […] The reaction was started by the addition of varying concentrations of the substrate and the wells monitored for a total of 5 minutes of reaction. The initial velocities of the substrate hydrolysis under first-order reaction were calculated by Gen5 Biotek software based on the linear-regression coefficient from the fit to data of Relative Fluorescence Unit (mRFU) as a function of time (min).
Each experiment was performed in duplicates for each compound being tested. […] All inhibitors were evaluated in two different concentrations, which were chosen based on a previous screening (percentage of inhibition) at 1.7 μM substrate (~K M). […] SigmaPlot (v. 10.0) was employed for the non-linear fit and the kinetic parameters determination.

[7] = system: Balb-c 3T3 clone A31 cells; assay: MTT cytotoxicity assay using mouse fibroblast cells; type: cell-based; conditions: 250 μM, Balb-c 3T3 cells, MTT, 24, 48 and 72 h, benznidazole as control
Protocol: All compounds were subjected to the MTT colorimetric assay using Balb-c 3T3 clone A31 cells (mouse fibroblast cells) acquired from the Rio de Janeiro Cell Bank (BCRJ code 0047). Inhibition values were determined in the cell-based assay as previously described. Briefly, cells were cultured at 37°C in an atmosphere of 5% CO2 using DMEM medium (Cultilab, Campinas-SP, Brazil) supplemented with 3.5 g glucose (Sigma-Aldrich), 1% penicillin/streptomycin solution and 10% FBS (Cultilab). Cells were plated at a concentration of 10^5 cell/mL in 96-well plates and incubated for 24 h. All compounds were freshly diluted from 50 mM DMSO stock solutions to obtain the final concentration of 250 μM and added to each well by replacing the medium. The cell viability was assessed during 24, 48 and 72 h using the MTT (Sigma-Aldrich) reagent, with an incubation time of 3 h. […] The readout was obtained using Biotek Synergy HT plate reader at 570 nm. Benznidazole was used as control. This assay was done in quatruplicate in two independent experiments. Statistical analyses were made in GraphPad Prism 5. Dunnett’s multiple comparison tests were performed using benznidazole as the standard compound for the ordinary ANOVA analysis using 95% confidence interval.

[8] = amastigote, T. cruzi Tulahuen strain, read-out: pEC50 ama Tula (converted)
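Throughout, for Ki: fluorometric read-out of substrate hydrolysis at excitation 355 nm and emission 460 nm, initial rates over 5 min, Ki from nonlinear kinetic fits, duplicate runs.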

Question: Which results are given for `O=C(Cn1ccnc1[N+](=O)[O-])NCc1ccccc1` [Benznidazole, reference compound]?
Answer: CC50 at 5 days [1]: 353 µM; cytotoxicity at 32 µM [2]: 31 ± 2%; killing at 32 µM [3]: 29 ± 2%; killing at 32 µM ([4]; T. cruzi Tulahuen strain): 78 ± 3%; EC50 [4, 8]: 1.58 µM

Question: Which results are given for `N#CCNC(=O)[C@H](Cc1ccccc1)NC(=O)c1ccccc1` [Compound 5, (2S)-N-(cyanomethyl)-3-phenyl-2-(phenylformamido)propanamide]?
Answer: reversibility of inhibition [5]: reversible; EC50 [4, 8]: 126 µM; Ki [6]: 501 nM

Question: Which cytotoxicity at 32 µM [2] does the source give for `N#CCNC(=O)[C@H](Cc1c[nH]c2ccccc12)NC(=O)c1ccccc1` [Compound 12, (2S)-N-(cyanomethyl)-3-(1H-indol-3-yl)-2-(phenylformamido)propanamide] here?
Answer: 34 ± 5%

Question: And the cytotoxicity [7]?
Answer: same range of cytotoxicity when compared to benznidazole

Question: And the killing at 32 µM [3]?
Answer: 17 ± 1%

Question: What about the melting point of the same compound?
Answer: 158 to 159 °C

Question: What about the killing at 32 µM ([4]; T. cruzi Tulahuen strain) of the same compound?
Answer: 60 ± 5%

Question: What about the EC50 ([4]; against the parasite (amastigote, Tulahuen strain), read-out: EC50) of the same compound?
Answer: 28 µM

Question: And the EC50 [4, 8]?
Answer: 25.1 µM

Question: What about the Ki [6] of the same compound?
Answer: 398 nM

Question: With `N#CCNC(=O)C1(NC(=O)c2ccccc2)CCCC1` [Compound 14, N-(1-[(cyanomethyl)carbamoyl]cyclopentyl)benzamide] as the compound, how does the cytotoxicity at 32 µM [2] read?
Answer: 18 ± 1%

Question: What about the killing at 32 µM [3] of the same compound?
Answer: 9 ± 1%

Question: And the melting point?
Answer: 165 to 166 °C

Question: What about the killing at 32 µM ([4]; T. cruzi Tulahuen strain) of the same compound?
Answer: 25 ± 4%

Question: What about the EC50 [4, 8] of the same compound?
Answer: 200 µM

Question: What about the Ki [6] of the same compound?
Answer: 7940 nM

Question: Which cytotoxicity at 32 µM [2] does the source give for `N#CCNC(=O)[C@H](Cc1ccccc1)NC(=O)c1ccco1` [Compound 17, (2S)-N-(cyanomethyl)-2-(furan-2-ylformamido)-3-phenylpropanamide] here?
Answer: 24 ± 0.2%

Question: And the killing at 32 µM [3]?
Answer: 21 ± 2%

Question: What about the melting point of the same compound?
Answer: 176 to 179 °C

Question: What about the killing at 32 µM ([4]; T. cruzi Tulahuen strain) of the same compound?
Answer: 36 ± 1%

Question: And the EC50 [4, 8]?
Answer: 100 µM

Question: What about the Ki [6] of the same compound?
Answer: 501 nM

Question: For `N#CCNC(=O)[C@H](Cc1ccccc1)NC(=O)c1ccncn1` [Compound 18, (2S)-N-(cyanomethyl)-3-phenyl-2-(pyrimidin-4-ylformamido)propanamide], which cytotoxicity at 32 µM [2] is on record?
Answer: 20 ± 1%

Question: What about the killing at 32 µM [3] of the same compound?
Answer: 18 ± 1%

Question: What about the melting point of the same compound?
Answer: 171 to 173 °C

Question: And the killing at 32 µM ([4]; T. cruzi Tulahuen strain)?
Answer: 17 ± 2%

Question: What about the EC50 [4, 8] of the same compound?
Answer: 200 µM

Question: What about the Ki [6] of the same compound?
Answer: 1260 nM

Question: For `CC(C)C[C@H](NC(=O)c1cc(C(C)(C)C)nn1C)C(=O)NCC#N` [Compound 29, (2S)-2-[(3-tert-butyl-1-methyl-1H-pyrazol-5-yl)formamido]-N-(cyanomethyl)-4 methylpentanamide], which cytotoxicity at 32 µM [2] is on record?
Answer: 27 ± 18%

Question: What about the killing at 32 µM [3] of the same compound?
Answer: 10 ± 1%

Question: What about the melting point of the same compound?
Answer: 179 to 180 °C

Question: What about the killing at 32 µM ([4]; T. cruzi Tulahuen strain) of the same compound?
Answer: 17 ± 4%

Question: And the Ki [6]?
Answer: 63.1 nM
